# Measured values from US10722484B2, “Methods of cancer treatment” (K-Gen, Inc., priority 2016, dated 2020).
# Where two headings read alike, the source gives them in different places.
# Tests used:
# [1] = tested on: HL60; test: Proliferation assay (CellTiter Glo); assay type: cell-based, human; settings: 96 hours; for EC50: Homo sapiens, HL-60
# Method: (§1) The dose range for most compounds was 4.6 nM-30 μM. The dose ranges for some compounds were adjusted downward to 0.46 nM-3 μM or 0.08 nM-0.5 μM or 0.03 nM-0.2 μM. […] The results are shown in Tables 3-6 for pancreatic cancer, lung cancer, colon/gastric cancer, and leukemia.
# [2] = tested on: THP1; test: Proliferation assay (CellTiter Glo); assay type: cell-based, human; settings: 96 hours; for EC50: Homo sapiens, THP-1
# Method: as §1
# [3] = tested on: A549 cells; test: Soft agar colony formation assay; assay type: cell-based; settings: 7-10 days, 9-point 3-fold dilution series
# Method: To prepare a base agar layer (0.6%), melted 1.2% agar solution was mixed 1:1 (v/v) with 2×DMEM/20% FBS medium in a tube by inverting several times, and 50 μL of the mixture was immediately transferred to a well in a 96-well flat-bottom microplate. The plate was placed at 4° C. for 30 minutes to allow the base agar layer to solidify. Then, the cell agar layer (agar 0.4%) was prepared by transferring 75 μL of the cell and agar mixture containing 1:1:1 (v/v/v) of 1.2% agar solution, 2×DMEM/20% FBS and cell suspension (0.4-4×10E5/mL) to each well of the plates so that each well contained 1000-10000 cells per well. The plates were placed at 4° C. for 15 minutes and then 75 μL of media was added to each well. After incubating the plates overnight in a CO2 incubator, 50 μL of media with or without 5× final concentrations of compounds were added to each well. Each compound was tested in 9-point 3-fold dilution series. The plates were incubated for 7-10 days at 37° C. At the end of incubation period, 28 μL of Calcein AM solution (5 μM) was added to the center of each well. The plates were incubated at 37° C. for 45 minutes before scanning on Acumen (TTP Labtech). Each compound was tested in triplicates. Data was analyzed and compound EC50s were calculated using GraphPad Prism 5.
# [4] = tested on: phospho-PKC (pan); test: Western blot analysis of PKC signaling pathway elements in A549 cells; assay type: cell-based; settings: 48 hours, K103, K102 at 0.5 μM, K101A at […]
# Method: (§2) Cancer cells (2-8 million cells) were seeded in 10 cm dishes and grown overnight. For A549 lung cancer cell line, about 3 million cells were seeded. Cells were then treated with different drugs at concentrations described in Table 8 for a period of time up to 48 hours. Cells were lysed in 0.3-0.5 mL of RIPA buffer (Sigma) supplemented with protease inhibitors (Roche) and phosphatase inhibitors (Sigma). Lysates were assayed for protein concentration using BCA kit (Pierce). Normalized amount of lysates (20-30 μg protein/lane) were run on 4-12% NuPage gel (Life Technologies) and the proteins were transferred to the PVDF or nitrocellulose membrane using iBlot® Transfer Stack (Life Technologies). The membranes were probed with primary antibodies shown in Table 9 at 4° C. overnight after blocking with 1×TBST containing 5% non-fat milk. Antibodies from other vendors could also be used in Western blot analysis. After washing 5 times with 1×TBS containing 0.1% Tween20, the membranes were probed with 2nd antibodies Anti-mouse IgG Dylight 800 conjugate or Anti-rabbit IgG DyLight 680 conjugate (1:10000; Cell signaling or similar IR 2nd antibodies from different vendors) at room temperature for one hour. After washing 5 times, the membranes were scanned using Odyssey® Imaging System (Licor Biosciences).
# [5] = tested on: leukemia inhibitory factor (LIF); test: as above; assay type: cell-based; settings: Western blot, concentrations of Table 8 (K101A 0.1, 0.5, […]; K101E […]; K102 0.1, 0.5 μM; K103 0.01 μM; Ref1 1 μM; Ref2 0.01 μM)
# Method: as §2
# [6] = tested on: HT29; test: Proliferation assay (CellTiter Glo); assay type: cell-based; settings: HT29 (RAS WT); 96 hours
# [7] = tested on: H1915; test: Proliferation assay (CellTiter Glo); assay type: cell-based; settings: H1915 (RAS WT); 96 hours
# [8] = tested on: BxPC-3; test: Proliferation assay (CellTiter Glo); assay type: cell-based; settings: BxPC-3 (RAS WT); 96 hours
# [9] = tested on: Colo205; test: Proliferation assay (CellTiter Glo); assay type: cell-based; settings: Colo205 (RAS WT); 96 hours
# [10] = tested on: SW900; test: Proliferation assay (CellTiter Glo); assay type: cell-based; settings: SW900 (K-RAS: G12V); 96 hours
# [11] = tested on: RPMI8226; test: Proliferation assay (CellTiter Glo); assay type: cell-based; settings: RPM18226; 96 hours
# [12] = tested on: H838; test: Proliferation assay (CellTiter Glo); assay type: cell-based; settings: H838 (RAS WT); 96 hours
# [13] = tested on: MiaPaCa-2; test: Proliferation assay (CellTiter Glo); assay type: cell-based; settings: 96 hours; for EC50: Homo sapiens, MIA PaCa-2
# [14] = tested on: AsPC-1; test: Proliferation assay (CellTiter Glo); assay type: cell-based; settings: 96 hours; for EC50: Homo sapiens, ASPC1
# Method: as §1
# [15] = tested on: A549; test: Proliferation assay (CellTiter Glo); assay type: cell-based; settings: 96 hours; for EC50: Homo sapiens
# Method: as §1
# [16] = tested on: SW620; test: Proliferation assay (CellTiter Glo); assay type: cell-based; settings: 96 hours
# Method: as §1
# [17] = tested on: LS180; test: Proliferation assay (CellTiter Glo); assay type: cell-based; settings: 96 hours
# Method: as §1
structure (smiles),measurement,setting,value
"C/C=C(/C)C(=O)O[C@H]1C(C)=C[C@]23C(=O)[C@@H](C=C(CO)[C@@H](O)[C@]12O)[C@H]1[C@@H](C[C@H]3C)C1(C)C [Compound K102, ingenol-3-angelate]",Top Inhibition %,"[1]; HL60, % of top inhibition",60.1%
same,EC50,"[1]; HL60 (N-RAS: Q61L), absolute EC50, read-out: Ab EC50",0.015 µM
same,EC50,"[1]; HL60, relative EC50, read-out: Re EC50",0.014 µM
same,EC50,"[2]; THP1 (N-RAS: G12D), absolute EC50, read-out: Ab EC50",0.015 µM
same,EC50,"[2]; THP1, relative EC50, read-out: Re EC50",0.012 µM
same,Top Inhibition %,"[2]; THP1, % of top inhibition",52.4%
same,number of colonies formed in soft agar,[3],reduced the number of colonies formed by A549 cells in a dose-dependent manner
same,phospho-PKC (pan) levels,[4],reduction
same,protein levels of the leukemia inhibitory factor (LIF),[5],did not affect
same,Top Inhibition %,[6],17.3%
same,Top Inhibition %,[7],30.8%
same,Top Inhibition %,[8],44.13%
same,Top Inhibition %,[9],86.0%
same,Top Inhibition %,[10],20.1%
same,Top Inhibition %,[11],27.06%
same,Top Inhibition %,[12],25.5%
same,EC50,"[13]; MiaPaCa-2 (K-RAS: G12C), absolute EC50, read-out: Ab EC50",0.013 µM
same,EC50,"[13]; MiaPaCa-2, relative EC50, read-out: Re EC50",0.009 µM
same,Top Inhibition %,"[13]; MiaPaCa-2, % of top inhibition",79.3%
same,Top Inhibition %,"[14]; AsPC-1, % of top inhibition",37.8%
same,EC50,"[14]; AsPC-1 (K-RAS: G12D), absolute EC50, read-out: Ab EC50",> 3 µM
same,EC50,"[14]; AsPC-1, relative EC50, read-out: Re EC50",0.014 µM
same,Top Inhibition %,"[15]; A549, % of top inhibition",80.8%
same,EC50,"[15]; A549 (K-RAS: G12S), absolute EC50, read-out: Ab EC50",0.017 µM
same,EC50,"[15]; A549, relative EC50, read-out: Re EC50",0.017 µM
same,EC50,"[16]; Homo sapiens, SW-620, SW620 (K-RAS: G12V), absolute EC50, read-out: Ab EC50",> 30 µM
same,Top Inhibition %,"[16]; SW620, % of top inhibition",0.0%
same,EC50,"[17]; Homo sapiens, LS180 (K-RAS: G12D), absolute EC50, read-out: Ab EC50",> 30 µM
same,Top Inhibition %,"[17]; LS180, % of top inhibition",9.3%
